Measured values taken from publication PMC8284461, “Piperidine-4-Carboxamides Target DNA Gyrase in Mycobacterium abscessus” (Antimicrobial Agents and Chemotherapy, 2021).
≈ marks a conversion by molar mass, not a printed value.

Experiments:
[1] = tested on: M. abscessus subsp. bolletii M506; parameters: method as in PMID 19171799; settings: bolletii M506, erm(41) C28; cited from earlier work
[2] = tested on: M. abscessus subsp. abscessus ATCC 19977 MXF^r-2 (GyrA D96N); assay: MIC, resistant mutant; type: cell-based, Mycobacterium abscessus; settings: Mycobacteroides abscessus, ATCC19977
[3] = tested on: M. abscessus subsp. abscessus ATCC 19977 844-TMF^r-4 (GyrB M474I); assay: MIC, resistant mutant; type: cell-based, Mycobacterium abscessus; settings: Mycobacteroides abscessus, ATCC19977
[4] = tested on: M. abscessus subsp. massiliense CCUG 48898T; parameters: method as in PMID 19171799; settings: erm(41) deletion; cited from earlier work
[5] = tested on: M. abscessus subsp. abscessus M199; parameters: method as in PMID 19171799; settings: abscessus M199, erm(41) T28; cited from earlier work
[6] = tested on: M. abscessus subsp. bolletii CCUG 50184T; parameters: method as in PMID 19171799; settings: erm(41) T28; cited from earlier work
[7] = tested on: M. abscessus subsp. bolletii M232; parameters: method as in PMID 19171799; settings: bolletii M232, erm(41) T28; cited from earlier work
[8] = tested on: M. abscessus subsp. abscessus Bamboo 844^r-2 (GyrA D91N); assay: MIC, resistant mutant; type: cell-based, Mycobacterium abscessus; settings: Mycobacteroides abscessus
[9] = tested on: M. abscessus subsp. abscessus Bamboo; parameters: method as in PMID 19171799; settings: erm(41) C28; cited from earlier work
[10] = tested on: M. abscessus subsp. abscessus ATCC 19977 MXF^r-1 (GyrA D96Y); assay: MIC, resistant mutant; type: cell-based, Mycobacterium abscessus; settings: Mycobacteroides abscessus, ATCC19977
[11] = tested on: M. abscessus subsp. abscessus M404; parameters: method as in PMID 19171799; settings: abscessus M404, erm(41) C28; cited from earlier work
[12] = tested on: M. abscessus subsp. abscessus M337; parameters: method as in PMID 19171799; settings: abscessus M337, erm(41) T28; cited from earlier work
[13] = tested on: M. abscessus subsp. abscessus M9; assay: MIC, broth microdilution; type: cell-based, Mycobacterium abscessus; settings: Mycobacteroides abscessus, 72 h, 90% growth inhibition, 3 days
Description: (§1) MIC was determined using the broth microdilution method in 96-well plates as described previously ([47]). Briefly, a 10-point 2-fold serial dilution of compounds was performed in 96-well plates (Costar 3370; Corning, USA) starting at twice the desired highest concentration. […] One hundred microliters of the bacterial suspension was seeded onto the 96-well plates containing 100 μl of the serially diluted compounds to give a final volume of 200 μl in each well with the final OD600 of 0.005. The plates were sealed with parafilm, placed onto wet paper towels in a lock-lock box and incubated for 3 days at 37°C with orbital shaking at 90 rpm. […] Absorbance values at day 3 were subtracted from the day 0 readout. Percent growth inhibition was calculated by dividing the absolute absorbance value of treated cells with untreated control and multiplying by 100. CLR was included in all MIC experiments as a positive control to monitor assay reproducibility. MIC was defined as 90% of growth inhibition relative to untreated controls.

[14] = tested on: M. abscessus subsp. abscessus M421; assay: MIC, broth microdilution; type: cell-based, Mycobacterium abscessus; settings: Mycobacteroides abscessus, 72 h, 90% growth inhibition, 3 days
Description: as §1

[15] = tested on: M. abscessus subsp. massiliense M111; assay: MIC, broth microdilution; type: cell-based, Mycobacterium abscessus; settings: Mycobacteroides abscessus, 72 h, 90% growth inhibition, 3 days
Description: as §1

[16] = tested on: M. abscessus subsp. abscessus M337; assay: MIC, broth microdilution; type: cell-based, Mycobacterium abscessus; settings: Mycobacteroides abscessus, 72 h, 90% growth inhibition, 3 days
Description: as §1

[17] = tested on: M. abscessus subsp. bolletii M232; assay: MIC, broth microdilution; type: cell-based, Mycobacterium abscessus; settings: Mycobacteroides abscessus, 72 h, 90% growth inhibition, 3 days
Description: as §1

[18] = tested on: M. abscessus subsp. bolletii M506; assay: MIC, broth microdilution; type: cell-based, Mycobacterium abscessus; settings: Mycobacteroides abscessus, 72 h, 90% growth inhibition, 3 days
Description: as §1

[19] = tested on: M. abscessus subsp. bolletii CCUG 50184T; assay: MIC, broth microdilution; type: cell-based, Mycobacterium abscessus; settings: Mycobacteroides abscessus, 72 h, 90% growth inhibition, 3 days
Description: as §1

[20] = tested on: M. abscessus subsp. abscessus Bamboo; assay: MIC, broth microdilution; type: cell-based, Mycobacterium abscessus; settings: Mycobacteroides abscessus, 72 h; abscessus Bamboo wild type; 90% growth inhibition, 3 days
Description: as §1

[21] = tested on: M. abscessus subsp. abscessus M199; assay: MIC, broth microdilution; type: cell-based, Mycobacterium abscessus; settings: Mycobacteroides abscessus, 72 h, 90% growth inhibition, 3 days
Description: as §1

[22] = tested on: M. abscessus subsp. abscessus M404; assay: MIC, broth microdilution; type: cell-based, Mycobacterium abscessus; settings: Mycobacteroides abscessus, 72 h, 90% growth inhibition, 3 days
Description: as §1

[23] = tested on: M. abscessus subsp. massiliense CCUG 48898T; assay: MIC, broth microdilution; type: cell-based, Mycobacterium abscessus; settings: Mycobacteroides abscessus, 72 h, 90% growth inhibition, 3 days
Description: as §1

[24] = tested on: M. abscessus subsp. abscessus ATCC 19977; assay: MIC, broth microdilution; type: cell-based, Mycobacterium abscessus; settings: abscessus ATCC 19977 wild type, 90% growth inhibition, 3 days
Description: as §1

[25] = tested on: M. abscessus subsp. abscessus K21; assay: MIC, broth microdilution; type: cell-based, Mycobacterium abscessus; settings: Mycobacteroides abscessus, 72 h, 90% growth inhibition, 3 days
Description: as §1

[26] = tested on: M. abscessus subsp. massiliense M111; parameters: method as in PMID 19171799; settings: massiliense M111, erm(41) deletion; cited from earlier work
[27] = tested on: M. abscessus subsp. abscessus M421; parameters: method as in PMID 19171799; settings: abscessus M421, erm(41) T28; cited from earlier work
[28] = tested on: M. abscessus subsp. abscessus ATCC 19977 MXF^r-3 (GyrA D96G); assay: MIC, resistant mutant; type: cell-based, Mycobacterium abscessus; settings: Mycobacteroides abscessus, ATCC19977
[29] = tested on: M. abscessus subsp. abscessus Bamboo 844^r-3 (GyrB S473W); assay: MIC, resistant mutant; type: cell-based, Mycobacterium abscessus; settings: Mycobacteroides abscessus
[30] = tested on: M. abscessus subsp. abscessus ATCC 19977; parameters: method as in PMID 19171799; settings: abscessus ATCC 19977, erm(41) T28; inducible resistance by sequevar; cited from earlier work
[31] = molecular target: recombinant M. abscessus wild-type DNA gyrase (Mycobacteroides abscessus, UniProt B1ME45+B1ME58); assay: biochemical; parameters: species or system Mycobacterium abscessus; settings: wild-type DNA gyrase, up to 50 μM
[32] = tested on: M. abscessus subsp. abscessus K21; parameters: method as in PMID 19171799; settings: abscessus K21, erm(41) C28; cited from earlier work
[33] = tested on: M. abscessus subsp. abscessus M9; parameters: method as in PMID 19171799; settings: abscessus M9, erm(41) T28; cited from earlier work

recombinant M. abscessus wild-type DNA gyrase, sequence (B1ME58 entry or part of it): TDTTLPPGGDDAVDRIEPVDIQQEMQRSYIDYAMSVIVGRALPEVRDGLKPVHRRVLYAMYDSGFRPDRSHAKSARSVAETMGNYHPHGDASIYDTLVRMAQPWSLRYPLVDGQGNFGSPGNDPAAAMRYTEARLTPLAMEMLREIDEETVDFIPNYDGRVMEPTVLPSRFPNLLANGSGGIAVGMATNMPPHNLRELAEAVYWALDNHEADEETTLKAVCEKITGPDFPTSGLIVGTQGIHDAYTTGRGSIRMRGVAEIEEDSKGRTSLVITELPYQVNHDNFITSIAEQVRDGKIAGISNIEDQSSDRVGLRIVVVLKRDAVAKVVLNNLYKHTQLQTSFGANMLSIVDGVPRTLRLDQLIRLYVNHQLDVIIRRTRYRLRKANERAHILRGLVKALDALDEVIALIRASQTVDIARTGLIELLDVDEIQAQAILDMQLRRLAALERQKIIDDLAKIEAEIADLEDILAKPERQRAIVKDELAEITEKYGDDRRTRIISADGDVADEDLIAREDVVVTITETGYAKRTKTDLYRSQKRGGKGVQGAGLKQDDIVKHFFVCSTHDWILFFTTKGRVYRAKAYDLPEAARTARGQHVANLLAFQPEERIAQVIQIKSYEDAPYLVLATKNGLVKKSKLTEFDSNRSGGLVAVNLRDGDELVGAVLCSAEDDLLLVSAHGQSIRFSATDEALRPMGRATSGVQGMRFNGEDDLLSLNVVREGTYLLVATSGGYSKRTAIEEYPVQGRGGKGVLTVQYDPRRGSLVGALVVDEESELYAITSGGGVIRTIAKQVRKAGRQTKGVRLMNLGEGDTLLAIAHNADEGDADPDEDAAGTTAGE
recombinant M. abscessus wild-type DNA gyrase, sequence (B1ME45 entry or part of it): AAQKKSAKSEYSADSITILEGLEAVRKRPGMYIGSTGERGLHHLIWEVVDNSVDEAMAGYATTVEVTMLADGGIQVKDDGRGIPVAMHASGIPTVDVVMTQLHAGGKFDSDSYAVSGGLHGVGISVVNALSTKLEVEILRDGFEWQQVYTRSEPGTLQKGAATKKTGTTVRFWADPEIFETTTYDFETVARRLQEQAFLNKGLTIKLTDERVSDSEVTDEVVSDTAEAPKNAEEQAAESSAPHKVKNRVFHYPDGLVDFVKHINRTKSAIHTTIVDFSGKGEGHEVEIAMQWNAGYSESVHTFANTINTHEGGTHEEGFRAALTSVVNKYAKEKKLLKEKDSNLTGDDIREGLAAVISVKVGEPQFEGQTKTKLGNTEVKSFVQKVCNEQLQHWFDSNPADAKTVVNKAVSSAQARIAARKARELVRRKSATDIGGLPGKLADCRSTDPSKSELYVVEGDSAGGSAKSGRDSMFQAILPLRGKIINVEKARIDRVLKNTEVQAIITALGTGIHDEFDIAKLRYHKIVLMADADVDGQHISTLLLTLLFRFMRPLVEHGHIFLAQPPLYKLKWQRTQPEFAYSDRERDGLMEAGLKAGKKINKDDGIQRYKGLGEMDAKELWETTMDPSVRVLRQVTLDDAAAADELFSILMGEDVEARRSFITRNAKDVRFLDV

For CC[C@H]1OC(=O)[C@H](C)[C@@H](O[C@H]2C[C@@](C)(OC)[C@@H](O)[C@H](C)O2)[C@H](C)[C@@H](O[C@@H]2O[C@H](C)C[C@H](N(C)C)[C@H]2O)[C@](C)(OC)C[C@@H](C)C(=O)[C@H](C)[C@@H](O)[C@]1(C)O [CLR, clarithromycin], the CLR susceptibility [1] is listed as “Sensitive”, the MIC [2] is listed as 1 µM (≈ 0.748 µg/mL) and the MIC [3] is listed as 2 µM (≈ 1.5 µg/mL). The CLR susceptibility [4] was “Sensitive”, the CLR susceptibility [5] was “Resistant” and the CLR susceptibility [6] was “Resistant”. For the same molecule, the CLR susceptibility [7] was “Resistant”, the MIC [8] was 0.3 µM (≈ 0.224 µg/mL) and the CLR susceptibility [9] was “Sensitive”. For the same molecule, the MIC [10] was 2 µM (≈ 1.5 µg/mL), the CLR susceptibility [11] was “Sensitive” and the CLR susceptibility [12] was “Resistant”. It also gave an MIC [13] of 3.2 µM (≈ 2.39 µg/mL), an MIC [14] of 3.2 µM (≈ 2.39 µg/mL) and an MIC [15] of 0.2 µM (≈ 0.15 µg/mL). For the same molecule, the MIC [16] was 3.2 µM (≈ 2.39 µg/mL), the MIC [17] was 3.2 µM (≈ 2.39 µg/mL) and the MIC [18] was 0.8 µM (≈ 0.598 µg/mL). It also gave an MIC [19] of 1.2 µM (≈ 0.898 µg/mL), an MIC [20] of 0.4 µM (≈ 0.299 µg/mL) and an MIC [21] of 3.2 µM (≈ 2.39 µg/mL). The MIC [22] was 0.8 µM (≈ 0.598 µg/mL), the MIC [23] was 0.2 µM (≈ 0.15 µg/mL) and the MIC ([24]; Mycobacteroides abscessus, ATCC19977, 72 h) was 2 µM (≈ 1.5 µg/mL). The MIC [24] was 2 µM (≈ 1.5 µg/mL), the MIC [25] was 0.6 µM (≈ 0.449 µg/mL) and the CLR susceptibility [26] was “Sensitive”. The CLR susceptibility [27] was “Resistant”, the MIC [28] was 1 µM (≈ 0.748 µg/mL) and the MIC [29] was 0.4 µM (≈ 0.299 µg/mL). For the same molecule, the CLR susceptibility [30] was “Resistant”, the “effect on supercoiling activity” value [31] was “did not affect the activity of the enzyme” and the CLR susceptibility [32] was “Sensitive”. The CLR susceptibility [33] was “Resistant”.
